Measured values taken from ChEMBL document CHEMBL5385898, “Recent advances in nuclear receptor-binding SET domain 2 (NSD2) inhibitors: An update and perspectives” (Eur J Med Chem, 2023).
Values belong to the compound of their own block, whether it stands above or below them.

How the values were obtained:
[1] = target: T1, Histone-lysine N-methyltransferase NSD2 (Homo sapiens, UniProt O96028); assay: Inhibition of NSD2 in human CGTH-W-1 cells assessed as reduction in H3K36me2 level incubated for 72 hrs by ELISA; format: cell-based
T1 sequence (O96028 whole entry): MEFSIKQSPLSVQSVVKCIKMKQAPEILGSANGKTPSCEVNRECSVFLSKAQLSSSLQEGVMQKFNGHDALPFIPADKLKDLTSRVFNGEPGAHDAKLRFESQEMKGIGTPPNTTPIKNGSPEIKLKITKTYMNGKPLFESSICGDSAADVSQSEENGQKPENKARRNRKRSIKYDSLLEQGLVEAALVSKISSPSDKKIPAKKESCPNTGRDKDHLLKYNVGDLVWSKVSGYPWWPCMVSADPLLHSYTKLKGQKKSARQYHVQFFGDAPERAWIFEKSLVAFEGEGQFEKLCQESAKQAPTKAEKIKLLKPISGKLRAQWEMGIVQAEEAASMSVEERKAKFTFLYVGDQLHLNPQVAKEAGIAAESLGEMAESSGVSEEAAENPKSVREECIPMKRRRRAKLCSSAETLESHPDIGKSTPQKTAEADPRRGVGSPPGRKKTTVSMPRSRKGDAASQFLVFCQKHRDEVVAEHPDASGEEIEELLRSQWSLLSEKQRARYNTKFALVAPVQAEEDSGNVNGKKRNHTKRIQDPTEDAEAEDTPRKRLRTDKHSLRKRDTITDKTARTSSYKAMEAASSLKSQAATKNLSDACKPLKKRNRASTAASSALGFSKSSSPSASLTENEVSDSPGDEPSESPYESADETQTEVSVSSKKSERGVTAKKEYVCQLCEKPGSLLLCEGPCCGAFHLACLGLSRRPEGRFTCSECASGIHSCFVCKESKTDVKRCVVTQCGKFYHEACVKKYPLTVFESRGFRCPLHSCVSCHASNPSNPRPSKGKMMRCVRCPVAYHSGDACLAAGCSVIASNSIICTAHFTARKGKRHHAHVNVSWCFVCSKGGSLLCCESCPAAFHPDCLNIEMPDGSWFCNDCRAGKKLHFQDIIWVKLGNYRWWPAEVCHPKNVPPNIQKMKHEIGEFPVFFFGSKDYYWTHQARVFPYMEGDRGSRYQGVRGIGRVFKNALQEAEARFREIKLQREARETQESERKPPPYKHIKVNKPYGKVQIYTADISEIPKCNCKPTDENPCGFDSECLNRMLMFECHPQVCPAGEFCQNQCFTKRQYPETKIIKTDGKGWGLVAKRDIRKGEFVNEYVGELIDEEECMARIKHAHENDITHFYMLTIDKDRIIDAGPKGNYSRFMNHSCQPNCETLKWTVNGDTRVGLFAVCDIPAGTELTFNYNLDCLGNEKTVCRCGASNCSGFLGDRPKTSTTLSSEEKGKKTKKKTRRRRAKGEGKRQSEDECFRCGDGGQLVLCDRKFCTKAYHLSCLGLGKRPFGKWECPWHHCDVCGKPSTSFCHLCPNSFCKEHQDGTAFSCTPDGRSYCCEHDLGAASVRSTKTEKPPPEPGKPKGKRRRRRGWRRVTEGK

[2] = target: T1, Histone-lysine N-methyltransferase NSD2; assay: Inhibition of NSD2 in human KMS-11-Par cells assessed as reduction in H3K36me2 level incubated for 72 hrs by ELISA; format: cell-based
[3] = target: T1, Histone-lysine N-methyltransferase NSD2; assay: Binding affinity to human biotinylated NSD2 (208 to 368 residues) expressed in Escherichia coli BL21(DE3) by SPR assay
[4] = target: T1, Histone-lysine N-methyltransferase NSD2; assay: Inhibition of 15N-labeled NSD2 (953 to 1240 residues) (unknown origin) expressed in Escherichia coli BL21 DE3 using H3K36 as substrate incubated for 60 mins by Alphascreen assay
[5] = target: T1, Histone-lysine N-methyltransferase NSD2; assay: Inhibition of NSD2 (unknown origin)
NCI-H2228 = assay: Antiproliferative activity against human NCI-H2228 cells; format: functional, cell-based
PC-3 = assay: Antiproliferative activity against human PC-3 cells; format: functional, cell-based
SK-OV-3 = assay: Antiproliferative activity against human SK-OV-3 cells; format: functional, cell-based
MDA-MB-231 = assay: Antiproliferative activity against human MDA-MB-231 cells; format: functional, cell-based
[6] = Inhibition of GST-tagged NSD3 (247 to 398 residues) (unknown origin) /PWWP1 (unknown origin) protein-protein interaction incubated for 60 mins by TR-FRET assay; parameters: species or system Homo sapiens
[7] = target: T1, Histone-lysine N-methyltransferase NSD2; assay: Inhibition of MMSET (unknown origin)
[8] = target: T1, Histone-lysine N-methyltransferase NSD2; assay: Inhibition of NSD2 (unknown origin) using H3K36 as substrate
[9] = target: Histone-lysine N-methyltransferase, H3 lysine-36 specific (Homo sapiens, UniProt Q96L73); assay: Inhibition of NSD1 (unknown origin) using H3K36 as substrate
[10] = target: T2, Histone-lysine N-methyltransferase NSD3 (Homo sapiens, UniProt Q9BZ95); assay: Inhibition of NSD3 (unknown origin) using H3K36 as substrate
T2 sequence (Q9BZ95 whole entry): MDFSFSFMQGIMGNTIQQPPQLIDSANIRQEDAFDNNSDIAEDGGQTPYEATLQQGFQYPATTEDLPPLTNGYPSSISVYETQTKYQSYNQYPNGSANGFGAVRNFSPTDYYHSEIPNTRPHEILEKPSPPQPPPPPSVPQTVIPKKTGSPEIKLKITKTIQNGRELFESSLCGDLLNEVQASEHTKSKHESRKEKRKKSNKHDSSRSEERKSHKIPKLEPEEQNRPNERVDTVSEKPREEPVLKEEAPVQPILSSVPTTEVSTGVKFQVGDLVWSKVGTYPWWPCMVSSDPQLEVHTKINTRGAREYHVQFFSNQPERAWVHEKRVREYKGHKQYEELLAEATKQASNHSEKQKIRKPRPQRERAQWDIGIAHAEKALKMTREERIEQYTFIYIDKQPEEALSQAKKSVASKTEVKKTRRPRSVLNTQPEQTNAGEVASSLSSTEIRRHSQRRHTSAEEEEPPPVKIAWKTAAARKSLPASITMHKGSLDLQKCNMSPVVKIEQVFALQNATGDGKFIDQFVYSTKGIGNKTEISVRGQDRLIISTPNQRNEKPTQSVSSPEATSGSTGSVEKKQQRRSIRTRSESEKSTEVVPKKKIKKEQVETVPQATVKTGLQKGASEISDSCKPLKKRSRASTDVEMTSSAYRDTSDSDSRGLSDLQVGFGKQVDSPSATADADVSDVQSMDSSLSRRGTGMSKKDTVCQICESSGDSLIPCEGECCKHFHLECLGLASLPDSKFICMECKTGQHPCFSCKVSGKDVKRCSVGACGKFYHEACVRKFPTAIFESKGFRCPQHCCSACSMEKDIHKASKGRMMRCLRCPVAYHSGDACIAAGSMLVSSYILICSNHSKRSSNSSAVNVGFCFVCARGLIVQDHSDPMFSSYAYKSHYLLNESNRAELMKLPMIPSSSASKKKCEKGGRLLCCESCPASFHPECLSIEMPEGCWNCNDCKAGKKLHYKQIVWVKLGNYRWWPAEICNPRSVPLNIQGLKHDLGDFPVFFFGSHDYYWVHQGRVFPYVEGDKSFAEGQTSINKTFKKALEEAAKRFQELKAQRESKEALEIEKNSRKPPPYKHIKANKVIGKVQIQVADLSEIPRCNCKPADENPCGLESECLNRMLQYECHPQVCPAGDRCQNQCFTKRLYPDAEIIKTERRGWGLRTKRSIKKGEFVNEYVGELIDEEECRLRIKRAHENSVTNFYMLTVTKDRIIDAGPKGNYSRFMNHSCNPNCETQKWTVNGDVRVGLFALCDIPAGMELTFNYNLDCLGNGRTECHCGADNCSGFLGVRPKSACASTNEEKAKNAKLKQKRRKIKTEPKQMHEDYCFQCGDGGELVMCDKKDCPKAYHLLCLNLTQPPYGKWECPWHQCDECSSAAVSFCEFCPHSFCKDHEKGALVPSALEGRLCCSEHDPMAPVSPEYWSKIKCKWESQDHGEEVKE

Sequence of Histone-lysine N-methyltransferase, H3 lysine-36 specific (Q96L73 whole entry): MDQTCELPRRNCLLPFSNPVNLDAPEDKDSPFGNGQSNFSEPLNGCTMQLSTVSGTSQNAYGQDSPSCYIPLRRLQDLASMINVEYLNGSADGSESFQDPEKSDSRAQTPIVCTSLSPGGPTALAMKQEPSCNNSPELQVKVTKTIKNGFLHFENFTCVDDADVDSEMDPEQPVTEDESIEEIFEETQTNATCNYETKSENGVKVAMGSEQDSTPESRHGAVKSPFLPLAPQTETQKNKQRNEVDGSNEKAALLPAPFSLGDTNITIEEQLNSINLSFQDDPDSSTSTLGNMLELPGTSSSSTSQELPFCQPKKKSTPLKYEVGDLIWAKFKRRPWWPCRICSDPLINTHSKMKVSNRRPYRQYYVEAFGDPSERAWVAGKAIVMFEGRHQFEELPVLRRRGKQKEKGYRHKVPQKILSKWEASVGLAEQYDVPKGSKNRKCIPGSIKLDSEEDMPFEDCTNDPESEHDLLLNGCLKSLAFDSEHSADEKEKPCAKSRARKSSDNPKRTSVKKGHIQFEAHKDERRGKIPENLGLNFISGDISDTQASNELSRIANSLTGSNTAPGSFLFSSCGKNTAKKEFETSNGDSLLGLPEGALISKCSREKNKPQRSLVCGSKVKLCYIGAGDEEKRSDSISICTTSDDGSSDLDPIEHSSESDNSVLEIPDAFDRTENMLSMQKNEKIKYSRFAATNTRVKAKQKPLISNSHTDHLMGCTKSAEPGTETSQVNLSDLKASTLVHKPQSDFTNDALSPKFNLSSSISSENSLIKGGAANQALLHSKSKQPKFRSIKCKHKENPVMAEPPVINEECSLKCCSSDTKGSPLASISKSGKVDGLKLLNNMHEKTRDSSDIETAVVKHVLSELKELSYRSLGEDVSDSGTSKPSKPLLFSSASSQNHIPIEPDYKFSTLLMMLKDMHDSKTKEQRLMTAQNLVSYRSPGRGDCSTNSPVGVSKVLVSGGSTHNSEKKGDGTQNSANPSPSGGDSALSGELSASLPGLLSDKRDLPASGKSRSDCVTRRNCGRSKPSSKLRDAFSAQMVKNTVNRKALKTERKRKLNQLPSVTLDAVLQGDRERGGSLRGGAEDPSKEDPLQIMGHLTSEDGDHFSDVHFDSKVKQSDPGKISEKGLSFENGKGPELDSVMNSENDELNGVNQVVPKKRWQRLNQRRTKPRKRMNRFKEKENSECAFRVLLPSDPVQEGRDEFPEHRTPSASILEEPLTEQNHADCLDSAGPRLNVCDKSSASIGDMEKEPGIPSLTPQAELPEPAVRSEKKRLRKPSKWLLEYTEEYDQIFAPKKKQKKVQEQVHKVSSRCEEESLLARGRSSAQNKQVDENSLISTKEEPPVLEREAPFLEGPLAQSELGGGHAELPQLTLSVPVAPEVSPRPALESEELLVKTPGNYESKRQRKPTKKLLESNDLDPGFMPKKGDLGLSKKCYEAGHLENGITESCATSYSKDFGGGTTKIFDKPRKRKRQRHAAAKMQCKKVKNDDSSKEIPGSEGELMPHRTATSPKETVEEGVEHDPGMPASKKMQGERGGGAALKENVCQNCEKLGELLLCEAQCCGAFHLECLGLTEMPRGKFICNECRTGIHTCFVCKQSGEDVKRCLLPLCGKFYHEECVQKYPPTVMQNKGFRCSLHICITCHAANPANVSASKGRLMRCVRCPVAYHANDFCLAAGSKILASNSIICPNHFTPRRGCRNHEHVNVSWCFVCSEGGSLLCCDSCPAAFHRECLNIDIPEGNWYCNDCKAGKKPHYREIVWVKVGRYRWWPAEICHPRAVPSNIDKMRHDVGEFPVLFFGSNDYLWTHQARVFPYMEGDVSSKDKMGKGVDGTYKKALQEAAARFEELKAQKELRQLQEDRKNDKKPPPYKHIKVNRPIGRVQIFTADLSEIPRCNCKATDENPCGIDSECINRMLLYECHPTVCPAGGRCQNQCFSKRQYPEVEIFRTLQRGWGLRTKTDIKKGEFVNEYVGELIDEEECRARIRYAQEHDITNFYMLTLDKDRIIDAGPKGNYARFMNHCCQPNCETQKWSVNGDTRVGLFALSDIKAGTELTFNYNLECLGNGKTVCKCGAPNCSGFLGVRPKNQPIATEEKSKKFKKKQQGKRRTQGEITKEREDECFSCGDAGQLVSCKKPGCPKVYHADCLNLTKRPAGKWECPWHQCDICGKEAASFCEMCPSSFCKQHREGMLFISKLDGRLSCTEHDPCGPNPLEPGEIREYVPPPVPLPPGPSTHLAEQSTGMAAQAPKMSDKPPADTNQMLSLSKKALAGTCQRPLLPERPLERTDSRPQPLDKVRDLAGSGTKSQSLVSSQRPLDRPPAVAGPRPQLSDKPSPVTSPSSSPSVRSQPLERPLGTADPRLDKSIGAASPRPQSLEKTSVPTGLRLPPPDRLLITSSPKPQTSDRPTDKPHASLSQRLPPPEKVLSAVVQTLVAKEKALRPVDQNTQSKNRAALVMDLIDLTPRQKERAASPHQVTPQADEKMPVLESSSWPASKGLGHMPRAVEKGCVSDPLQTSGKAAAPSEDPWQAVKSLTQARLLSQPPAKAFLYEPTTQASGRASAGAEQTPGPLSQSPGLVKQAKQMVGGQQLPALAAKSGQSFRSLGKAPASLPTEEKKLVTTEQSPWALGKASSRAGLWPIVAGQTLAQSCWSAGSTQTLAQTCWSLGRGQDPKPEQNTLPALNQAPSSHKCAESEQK

Structure (SMILES): CC[C@H](C)C(=O)[C@@]1(N)CCCN(c2cnc(-c3ccc(F)c(F)c3)cc2Cn2cnc3c(N)ncnc32)C1
- IC50 [1]: 0.04 µM
- IC50 [2]: 0.034 µM

Structure (SMILES): CC(C)CN[C@@H](CC[C@H](N)C(=O)O)C[C@H]1O[C@@H](n2cnc3c(N)ncnc32)[C@H](O)[C@@H]1O
- IC50 [4]: 1.8 µM

Structure (SMILES): Nc1ncnc2c1ncn2[C@@H]1O[C@H](C[C@@H](N)CC[C@H](N)C(=O)O)[C@@H](O)[C@H]1O [SINEFUNGIN]
- IC50 [4]: 46 µM

Structure (SMILES): Cc1cc(CN)cc(C)c1-c1ncn(C)c1-c1ccnc2cc(F)ccc12
- IC50 [6]: 0.203 µM

Structure (SMILES): NNc1nc2ccccc2nc1S
- IC50 [7]: < 3 µM

Structure (SMILES): Nc1ncnc2c1ncn2Cc1cc(-c2ccc(F)c(F)c2)ncc1N1CCC[C@](N)(c2ccccn2)C1
- IC50 [1]: 0.018 µM
- IC50 [2]: 0.041 µM

Structure (SMILES): O=C(NCCCN(Cc1nc2sc3c(c2c(=O)[nH]1)CCCC3)Cc1nc2sc3c(c2c(=O)[nH]1)CCCC3)c1cc2ccccc2c(=O)o1
- IC50 [8]: 111 µM
- IC50 [9]: 418 µM
- IC50 [10]: 60 µM

The remaining lines, values ahead:

- Kd [3]: > 20 µM
Structure (SMILES): CC(C)N(Cc1ccc(C(=O)Nc2ccncn2)cc1)C(=O)c1ccc2c(c1)OCC(=O)N2

- Kd [3]: 0.349 µM
Structure (SMILES): O=C1COc2cc(C(=O)N(Cc3cccs3)C3CC3)ccc2N1

- IC50 [5]: 7.3 µM
Structure (SMILES): CC(=O)c1ccc(-c2cc(NC(=O)Nc3ccc4nnsc4c3)cc(C(F)(F)F)c2)s1

- IC50 [1]: 0.012 µM
- IC50 [2]: 0.078 µM
Structure (SMILES): CNC(=O)[C@@]1(N)CCCN(c2cnc(-c3cccc(F)c3)cc2Cn2cnc3c(N)ncnc32)C1

- IC50 (NCI-H2228): 6.8 µM
- IC50 [5]: 3.7 µM
- IC50 (PC-3): 4.2 µM
- IC50 (SK-OV-3): 2.6 µM
- IC50 (MDA-MB-231): 5.1 µM
Structure (SMILES): COC(=O)c1cc(NC(=O)Nc2ccc3nnsc3c2)cc(C(=O)OC)c1

- IC50 [5]: 7.5 µM
Structure (SMILES): N#Cc1cccc(NC(=O)Nc2ccc3nnsc3c2)c1

- IC50 [5]: 8.1 µM
Structure (SMILES): C=CC(=O)Nc1cc(NC(=O)Nc2ccc3nnsc3c2)cc(C(=O)OC)c1

- IC50 [5]: 4.8 µM
Structure (SMILES): O=C(Nc1cccc([N+](=O)[O-])c1)Nc1ccc2nnsc2c1

- IC50 [5]: 8.3 µM
Structure (SMILES): Cn1nnc2ccc(NC(=O)Nc3cccc([N+](=O)[O-])c3)cc21
